Laboratory results reported in the NIST ThermoML archive (doi:10.1016/j.fluid.2014.05.031).

Assay: excess molar enthalpy (molar enthalpy of mixing); xn = mol fraction of the nth substance listed
Details: Liquid, Flow calorimetry

CC(=O)O [acetic acid] + CCO
323.15 K, 1548 kPa
Details	excess molar enthalpy [kcal/mol]
x1 = 0.0247	0.0108
x1 = 0.0493	0.0202
x1 = 0.0987	0.0347
x1 = 0.1729	0.0468
x1 = 0.2473	0.0514
x1 = 0.3467	0.0507
x1 = 0.4464	0.0435
x1 = 0.5464	0.0354
x1 = 0.6467	0.0265
x1 = 0.7473	0.0192
x1 = 0.8229	0.0145
x1 = 0.8987	0.0093
x1 = 0.9493	0.00504
x1 = 0.9746	0.0028

CC(=O)O [acetic acid] + CCOC(C)=O
323.15 K, 1548 kPa
Details	excess molar enthalpy [kcal/mol]
x2 = 0.0148	-0.00177
x2 = 0.03	-0.00354
x2 = 0.0613	-0.00636
x2 = 0.1108	-0.00925
x2 = 0.1637	-0.0104
x2 = 0.2403	-0.00942
x2 = 0.3246	-0.00631
x2 = 0.4179	-0.00131
x2 = 0.5217	0.00523
x2 = 0.6379	0.0129
x2 = 0.7347	0.0174
x2 = 0.8409	0.0188
x2 = 0.9178	0.0152
x2 = 0.9582	0.0105

CCO [ethanol] + O
Details	excess molar enthalpy [kcal/mol]
333.15 K, 1824 kPa, x1 = 0.0079	-0.00954
333.15 K, 1824 kPa, x1 = 0.016	-0.019
333.15 K, 1824 kPa, x1 = 0.0333	-0.037
333.15 K, 1824 kPa, x1 = 0.0519	-0.0519
333.15 K, 1824 kPa, x1 = 0.0719	-0.0636
333.15 K, 1824 kPa, x1 = 0.0936	-0.071
333.15 K, 1824 kPa, x1 = 0.1172	-0.0736
333.15 K, 1824 kPa, x1 = 0.143	-0.0731
333.15 K, 1824 kPa, x1 = 0.1712	-0.0688
333.15 K, 1824 kPa, x1 = 0.2023	-0.0619
333.15 K, 1824 kPa, x1 = 0.2366	-0.0552
333.15 K, 1824 kPa, x1 = 0.2747	-0.0454
333.15 K, 1824 kPa, x1 = 0.3173	-0.0351
333.15 K, 1824 kPa, x1 = 0.3653	-0.0241
333.15 K, 1824 kPa, x1 = 0.4196	-0.0125
333.15 K, 1824 kPa, x1 = 0.4818	-0.00174
333.15 K, 1824 kPa, x1 = 0.5535	0.00655
333.15 K, 1824 kPa, x1 = 0.6372	0.00999
333.15 K, 1824 kPa, x1 = 0.7361	0.00746
333.15 K, 1824 kPa, x1 = 0.8548	0.000143
333.15 K, 1824 kPa, x1 = 0.9236	-0.0037
333.15 K, 1824 kPa, x1 = 0.9608	-0.00289
363.15 K, 1203 kPa, x1 = 0.0079	-0.00268
363.15 K, 1203 kPa, x1 = 0.016	-0.00562
363.15 K, 1203 kPa, x1 = 0.0333	-0.0111
363.15 K, 1203 kPa, x1 = 0.0518	-0.0141
363.15 K, 1203 kPa, x1 = 0.0719	-0.014
363.15 K, 1203 kPa, x1 = 0.0936	-0.0108
363.15 K, 1203 kPa, x1 = 0.1172	-0.00483
363.15 K, 1203 kPa, x1 = 0.143	0.00375
363.15 K, 1203 kPa, x1 = 0.1712	0.0131
363.15 K, 1203 kPa, x1 = 0.2022	0.0237
363.15 K, 1203 kPa, x1 = 0.2365	0.0344
363.15 K, 1203 kPa, x1 = 0.2746	0.0457
363.15 K, 1203 kPa, x1 = 0.3173	0.0576
363.15 K, 1203 kPa, x1 = 0.3652	0.0688
363.15 K, 1203 kPa, x1 = 0.4196	0.0793
363.15 K, 1203 kPa, x1 = 0.4817	0.0858
363.15 K, 1203 kPa, x1 = 0.5534	0.0875
363.15 K, 1203 kPa, x1 = 0.6371	0.0813
363.15 K, 1203 kPa, x1 = 0.736	0.0641
363.15 K, 1203 kPa, x1 = 0.8548	0.0351
363.15 K, 1203 kPa, x1 = 0.9236	0.018
383.15 K, 1500 kPa, x1 = 0.0333	0.00287
383.15 K, 1500 kPa, x1 = 0.0719	0.0147
383.15 K, 1500 kPa, x1 = 0.1172	0.0339
383.15 K, 1500 kPa, x1 = 0.1712	0.0588
383.15 K, 1500 kPa, x1 = 0.2365	0.0858
383.15 K, 1500 kPa, x1 = 0.3173	0.112
383.15 K, 1500 kPa, x1 = 0.4196	0.132
383.15 K, 1500 kPa, x1 = 0.5534	0.138
383.15 K, 1500 kPa, x1 = 0.6371	0.13
383.15 K, 1500 kPa, x1 = 0.736	0.106
383.15 K, 1500 kPa, x1 = 0.7926	0.0887
383.15 K, 1500 kPa, x1 = 0.8548	0.0645
383.15 K, 1500 kPa, x1 = 0.9236	0.0349
